Measured values reported in the supplement of paper PMC10307832.

Key:
Experiment in all cases: relative viability (nuclei count vs DMSO), 5 days (fraction); higher = more cells survive
COR-L 105 = test system: COR-L 105
Outline: (§1)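 Cells from lung cancer lines were seeded into 1536-well plates and, one day later, dosed by pin tool. Treatments were either a single drug or a fixed dose of an anchor drug with five library-drug doses (not always all listed) in √10 steps. After 5 days, nuclei were stained in a one-step fixation (final 0.05% Triton X-100, 1% formaldehyde, 1 ug/ml Hoechst) and counted on 4× images, and relative viability is the treated-to-vehicle nuclei ratio, as the median of duplicate plates.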

HCC-78 = test system: HCC-78
Outline: as §1

UMC-11 = test system: UMC-11
Outline: as §1

NCI-H2405 = test system: NCI-H2405
Outline: as §1

HCC-366 = test system: HCC-366
Outline: as §1

NCI-H1975 = test system: NCI-H1975
Outline: as §1

NCI-H1395 = test system: NCI-H1395
Outline: as §1

NCI-H1437 = test system: NCI-H1437
Outline: as §1

LCLC-103H = test system: LCLC-103H
Outline: as §1

NCI-H358 = test system: NCI-H358
Outline: as §1

EPLC-272H = test system: EPLC-272H
Outline: as §1

NCI-H727 = test system: NCI-H727
Outline: as §1

HCC-827 = test system: HCC-827
Outline: as §1

HCC-15 = test system: HCC-15
Outline: as §1

NCI-H2085 = test system: NCI-H2085
Outline: as §1

NCI-H1792 = test system: NCI-H1792
Outline: as §1

NCI-H661 = test system: NCI-H661
Outline: as §1

NCI-H2023 = test system: NCI-H2023
Outline: as §1

NCI-H1944 = test system: NCI-H1944
Outline: as §1

HCC-44 = test system: HCC-44
Outline: as §1

SK-LU-1 = test system: SK-LU-1
Outline: as §1

COR-L23 = test system: COR-L23
Outline: as §1

HARA = test system: HARA
Outline: as §1

O=c1[nH]c2ccccc2n1C1CCN(CCCC(c2ccc(F)cc2)c2ccc(F)cc2)CC1 [Pimozide] + Cc1nc(NC(=O)N2CCC[C@H]2C(N)=O)sc1-c1ccnc(C(C)(C)C(F)(F)F)c1 [Alpelisib] (partner 2 µM)
relative viability (COR-L 105; first compound 0.253 µM): 0.854 | relative viability (COR-L 105; first compound 0.8 µM): 0.872 | relative viability (COR-L 105; first compound 2.53 µM): 0.802 | relative viability (COR-L 105; first compound 8 µM): 0.608 | relative viability (HCC-78; first compound 0.08 µM): 0.406 | relative viability (HCC-78; first compound 0.253 µM): 0.366 | relative viability (HCC-78; first compound 0.8 µM): 0.294 | relative viability (HCC-78; first compound 2.53 µM): 0.293 | relative viability (HCC-78; first compound 8 µM): 0.329 | relative viability (UMC-11; first compound 0.08 µM): 1.05 | relative viability (UMC-11; first compound 0.253 µM): 0.967 | relative viability (UMC-11; first compound 0.8 µM): 1.05 | relative viability (UMC-11; first compound 2.53 µM): 1.04 | relative viability (UMC-11; first compound 8 µM): 1.19 | relative viability (NCI-H2405; first compound 0.08 µM): 0.782 | relative viability (NCI-H2405; first compound 0.253 µM): 0.622 | relative viability (NCI-H2405; first compound 0.8 µM): 0.684 | relative viability (NCI-H2405; first compound 2.53 µM): 0.741 | relative viability (NCI-H2405; first compound 8 µM): 0.61 | relative viability (HCC-366; first compound 0.08 µM): 0.354 | relative viability (HCC-366; first compound 0.253 µM): 0.381 | relative viability (HCC-366; first compound 0.8 µM): 0.406 | relative viability (HCC-366; first compound 2.53 µM): 0.425 | relative viability (HCC-366; first compound 8 µM): 0.518 | relative viability (NCI-H1975; first compound 0.08 µM): 0.64 | relative viability (NCI-H1975; first compound 0.253 µM): 0.715 | relative viability (NCI-H1975; first compound 0.8 µM): 0.606 | relative viability (NCI-H1975; first compound 2.53 µM): 0.602 | relative viability (NCI-H1975; first compound 8 µM): 0.535 | relative viability (NCI-H1395; first compound 0.08 µM): 1.31 | relative viability (NCI-H1395; first compound 0.253 µM): 0.958 | relative viability (NCI-H1395; first compound 0.8 µM): 1.06 | relative viability (NCI-H1395; first compound 2.53 µM): 1.16 | relative viability (NCI-H1395; first compound 8 µM): 0.952 | relative viability (NCI-H1437; first compound 0.08 µM): 1.04 | relative viability (NCI-H1437; first compound 0.253 µM): 0.965 | relative viability (NCI-H1437; first compound 0.8 µM): 1.02 | relative viability (NCI-H1437; first compound 2.53 µM): 0.862 | relative viability (NCI-H1437; first compound 8 µM): 0.916 | relative viability (LCLC-103H; first compound 0.08 µM): 0.939 | relative viability (LCLC-103H; first compound 0.253 µM): 0.853 | relative viability (LCLC-103H; first compound 0.8 µM): 1.01 | relative viability (LCLC-103H; first compound 2.53 µM): 0.979 | relative viability (LCLC-103H; first compound 8 µM): 0.912 | relative viability (NCI-H358; first compound 0.08 µM): 0.761 | relative viability (NCI-H358; first compound 0.253 µM): 0.775 | relative viability (NCI-H358; first compound 0.8 µM): 0.786 | relative viability (NCI-H358; first compound 2.53 µM): 0.808 | relative viability (NCI-H358; first compound 8 µM): 0.852 | relative viability (EPLC-272H; first compound 0.08 µM): 0.838 | relative viability (EPLC-272H; first compound 0.253 µM): 0.962 | relative viability (EPLC-272H; first compound 0.8 µM): 0.894 | relative viability (EPLC-272H; first compound 2.53 µM): 0.912 | relative viability (EPLC-272H; first compound 8 µM): 0.771 | relative viability (NCI-H727; first compound 0.08 µM): 0.569 | relative viability (NCI-H727; first compound 0.253 µM): 0.582 | relative viability (NCI-H727; first compound 0.8 µM): 0.729 | relative viability (NCI-H727; first compound 2.53 µM): 0.547 | relative viability (NCI-H727; first compound 8 µM): 0.519 | relative viability (HCC-827; first compound 0.253 µM): 0.92 | relative viability (HCC-827; first compound 0.8 µM): 0.956 | relative viability (HCC-827; first compound 2.53 µM): 0.95 | relative viability (HCC-827; first compound 8 µM): 1 | relative viability (HCC-15; first compound 0.08 µM): 0.913 | relative viability (HCC-15; first compound 0.253 µM): 0.91 | relative viability (HCC-15; first compound 0.8 µM): 0.832 | relative viability (HCC-15; first compound 2.53 µM): 0.782 | relative viability (HCC-15; first compound 8 µM): 0.769 | relative viability (NCI-H2085; first compound 0.08 µM): 0.928 | relative viability (NCI-H2085; first compound 0.253 µM): 0.962 | relative viability (NCI-H2085; first compound 0.8 µM): 0.875 | relative viability (NCI-H2085; first compound 2.53 µM): 0.981 | relative viability (NCI-H2085; first compound 8 µM): 0.864 | relative viability (NCI-H1792; first compound 0.08 µM): 0.874 | relative viability (NCI-H1792; first compound 0.253 µM): 0.661 | relative viability (NCI-H1792; first compound 0.8 µM): 0.668 | relative viability (NCI-H1792; first compound 2.53 µM): 0.575 | relative viability (NCI-H1792; first compound 8 µM): 0.836 | relative viability (NCI-H661; first compound 0.08 µM): 0.759 | relative viability (NCI-H661; first compound 0.253 µM): 0.594 | relative viability (NCI-H661; first compound 0.8 µM): 0.592 | relative viability (NCI-H661; first compound 2.53 µM): 0.494 | relative viability (NCI-H661; first compound 8 µM): 0.766 | relative viability (NCI-H2023; first compound 0.08 µM): 0.524 | relative viability (NCI-H2023; first compound 0.253 µM): 0.632 | relative viability (NCI-H2023; first compound 0.8 µM): 0.533 | relative viability (NCI-H2023; first compound 2.53 µM): 0.535 | relative viability (NCI-H2023; first compound 8 µM): 0.461 | relative viability (NCI-H1944; first compound 0.08 µM): 0.654 | relative viability (NCI-H1944; first compound 0.253 µM): 0.817 | relative viability (NCI-H1944; first compound 0.8 µM): 0.815 | relative viability (NCI-H1944; first compound 2.53 µM): 0.824 | relative viability (NCI-H1944; first compound 8 µM): 0.81 | relative viability (HCC-44; first compound 0.08 µM): 0.856 | relative viability (HCC-44; first compound 0.253 µM): 0.751 | relative viability (HCC-44; first compound 0.8 µM): 0.802 | relative viability (HCC-44; first compound 2.53 µM): 0.736 | relative viability (HCC-44; first compound 8 µM): 0.677 | relative viability (SK-LU-1; first compound 0.08 µM): 0.961 | relative viability (SK-LU-1; first compound 0.253 µM): 0.986 | relative viability (SK-LU-1; first compound 0.8 µM): 0.926 | relative viability (SK-LU-1; first compound 2.53 µM): 0.719 | relative viability (SK-LU-1; first compound 8 µM): 0.649 | relative viability (COR-L23; first compound 0.08 µM): 0.783 | relative viability (COR-L23; first compound 0.253 µM): 0.862 | relative viability (COR-L23; first compound 0.8 µM): 0.763 | relative viability (COR-L23; first compound 2.53 µM): 0.74 | relative viability (COR-L23; first compound 8 µM): 0.695 | relative viability (HARA; first compound 0.08 µM): 0.718 | relative viability (HARA; first compound 0.253 µM): 0.829 | relative viability (HARA; first compound 0.8 µM): 0.565 | relative viability (HARA; first compound 2.53 µM): 0.675 | relative viability (HARA; first compound 8 µM): 0.728
